Measurements: patent US20110243993A1, “Method for diagnosing and creating immunogenic tolerance in contact allergy and other epithelial immunotoxicological ailments” (priority 2010, published 2011)
Entries after “also recorded” stand apart in the source; their conditions may differ. Blank lines part the entries; values can stand above or below the molecule they belong to.

Key:
[1] = mouse, in vivo; cited from earlier work
[2] = test system: human keratinocytes; conditions: for blebbing response of keratinocytes: compound added to human keratinocytes, vehicle DMSO
Text: (§1) The third step is that this residue (C54) is situated in a stretch of K5 that has been shown through its interactions with desmoplakin, to be vital in maintaining the integrity of the desmosome. It is known that epithelial cells with a compromised cell-cell (and/or cell-matrix) contact undergo apoptosis (“anoikis”). […] Basal keratinocytes consists of up to 35% of insoluble keratin intermediate filaments (KIFs). As basal keratinocytes occasionally undergo apoptosis, a mechanism of waste removal of the debris of insoluble keratins has evolved. […] The keratin bodies bleb off the cells.

[3] = test system: serum amyloid P component (SAP); test: ELISA detection of serum amyloid protein (SAP) in sera of hapten-exposed mice; conditions: mice exposed on skin, booster dose on day 10
Description: Extreme sensitizers: Oxazolone (4-Ethoxymethylene-2-phenyl-2-oxazolin-5-one, 1.4 mM) CDNB (1-Chloro-2,4-dinitrobenzene, 7.4 mM)); Strong sensitizers: dBBr (48.6 mM), Glyoxal (ethane-1,2-dione, 1.27 M). DMSO was used as control. All chemicals are purchased from Sigma-Aldrich (Stockholm, Sweden).
Apply 25 μl of the solution to the back of both ears (25 μl on each ear), once daily, on day 1, 2 and 3. Apply a booster dose on day 10 (if necessary). Sacrifice the mice on day 6 (or day 13 if a booster dose is used) by anesthetization with isoflurane (Kent Scientific Corporation, Torrington, Conn., USA) followed by inhalation of carbon dioxide (AGA, Lidingö, Sverige). To collect blood: Use a 1 ml syringe (B. Braun Medical Inc., Bethlehem, Pa., USA) with a 0.4 mm×12 mm injection needle (B. Braun Medical Inc., Bethlehem, Pa., USA). Place the tip of the needle just below the breastbone so that the syringe is linear to the abdomen. Insert the needle just below the breastbone and press it towards the heart. When inside the heart, withdraw blood. It is important to loosen the piston a little from the bottom of the syringe before inserting into the mouse. Carefully rotate the syringe during withdrawal to avoid clotting. […]
The SAP Mouse, ELISA kit 96 tests, quantitative (Alpha Diagnostics International Inc., San Antonio, Tex., USA) is used. […]

[4] = test system: anti-nuclear antibodies (ANA); test: Levels of anti-nuclear antibodies (ANA) after contact with sensitizing compounds; conditions: contact with sensitizing compound
[5] = test system: K5 and K14; test: Western blot of blebs using K5 and K14 antibodies; format: cell-based, human; conditions: blebs from hapten-exposed keratinocytes
Text: Elevated levels of ANA are common features in various autoimmune diseases such as Sjögrens syndrome (SS), rheumatoid arthritis (RA) and systemic lupus erythematosus (SLE).
as §1

[6] = naïve mice; cited from earlier work
[7] = test system: keratins; test: Cross-linking of bleb proteins by bidentate haptens; parameters: species or system human; conditions: bidentate hapten
Text: In SDS-PAGE experiments it was shown that thiol-, amine-, and arginine-reactive sensitizers give rise to blebs that contain the same protein bands. In this step, it is thus shown that by adding haptens to keratinocytes, the haptens induce expulsion of a high amount of cryptic epitopes that are normally concealed from the immune system through their intracellular location and/or neoepitopes consisting of haptenated/differently processed peptides and proteins. It was also shown, using a LTQ-FT-ICR mass spectrometer coupled to a nanospray source, that the blebs contain other proteins, for example peptidyl-prolyl cis-trans isomerase A, stathmin, calmodulin, cofilin-1, transgelin-2, 14-3-3 protein sigma, annexin A2, tubulin, keratin 6A 6B 6C, transitional endoplasmic reticulum ATPase, endoplasmin, and importin-5. […] It was also shown that the sensitizing compounds also modify other proteins and that these proteins are released in blebs, as visualized by fluorescent bands on SDS-gels.

[8] = molecular target: T1, cysteine 54 (C54) of K5 (Homo sapiens, UniProt P13647); test: Identification of haptenation site with LTQ-FT-ICR mass spectrometer
T1 construct: endogenous in cells; host or cells: living (primary) human keratinocytes and intact full-thickness human skin
T1 sequence (P13647 1-590): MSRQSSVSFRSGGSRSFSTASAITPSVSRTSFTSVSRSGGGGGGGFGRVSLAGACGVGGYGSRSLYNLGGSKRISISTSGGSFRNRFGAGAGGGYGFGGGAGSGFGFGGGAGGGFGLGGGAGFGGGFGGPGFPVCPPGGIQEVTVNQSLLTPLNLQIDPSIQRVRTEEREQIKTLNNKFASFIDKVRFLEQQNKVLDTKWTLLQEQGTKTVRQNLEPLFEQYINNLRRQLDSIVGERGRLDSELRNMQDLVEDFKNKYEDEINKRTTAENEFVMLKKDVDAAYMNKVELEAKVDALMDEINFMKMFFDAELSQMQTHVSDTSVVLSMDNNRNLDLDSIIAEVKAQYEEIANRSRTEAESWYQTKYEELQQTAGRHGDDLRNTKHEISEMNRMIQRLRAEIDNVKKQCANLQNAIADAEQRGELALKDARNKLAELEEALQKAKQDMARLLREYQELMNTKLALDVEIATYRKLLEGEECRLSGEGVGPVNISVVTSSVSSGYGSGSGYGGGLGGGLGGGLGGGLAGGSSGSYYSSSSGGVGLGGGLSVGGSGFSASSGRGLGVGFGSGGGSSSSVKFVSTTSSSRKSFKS
T1 sequence (P02533 1-472 partner): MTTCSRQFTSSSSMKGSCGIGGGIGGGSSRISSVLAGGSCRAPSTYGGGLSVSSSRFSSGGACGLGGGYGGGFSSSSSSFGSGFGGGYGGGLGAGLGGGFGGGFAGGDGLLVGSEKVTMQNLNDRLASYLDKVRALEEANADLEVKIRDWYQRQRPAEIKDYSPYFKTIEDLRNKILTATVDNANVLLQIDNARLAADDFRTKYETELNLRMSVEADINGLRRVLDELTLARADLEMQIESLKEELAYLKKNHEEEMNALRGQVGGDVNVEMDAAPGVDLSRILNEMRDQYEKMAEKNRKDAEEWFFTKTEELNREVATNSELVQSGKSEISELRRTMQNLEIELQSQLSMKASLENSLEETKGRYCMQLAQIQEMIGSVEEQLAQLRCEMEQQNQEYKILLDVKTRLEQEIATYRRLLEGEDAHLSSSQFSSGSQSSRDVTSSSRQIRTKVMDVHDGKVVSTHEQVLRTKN
Text: The second step is that the molecules enter the basal cells. Since the extracellular environment is oxidizing, extracellular cysteines are mostly oxidized to disulfides. However, it is in the reduced, intracellular environment that the haptens find reduced thiols to react with. Once inside the cells the compounds will react with available (i.e. not sterically hindered) reduced cysteines (thiol groups). […] Furthermore, it was identified that one of the cysteines that the haptens react with is cysteine 54 (C54) of K5. […] One of the reasons for intense reaction at C54 is presumably its high effective concentration just inside the cell membrane. It is vital in the life of an organism to fail-safe its epithelial integrity, and the bundling of the KIFs ensures a high effective local concentration of the peptide stretch containing C54, ensuring strong welding of the cell to its surroundings. Amino acids nearby in the primary sequence are consequently also located within physical reach of an incoming compound in similarly high effective concentrations. Looking at blebbing brought on by amine- and arginine-reactive compounds from this angle, the residues K71 and R72 are the closest candidates in the primary sequence.

[9] = Induction of oral tolerance in humans allergic to cinnamic aldehyde; format: in vivo, human; conditions: once a day for 5-100 days, vs placebo (tap water)
Text: Peptides (including, but not limited to): 1: [Ace]-[…]-[Amide]; 2: [Ace]-[…]-[Amide], 3: [Ace]-[…]-[Amide]. The peptides 1 and 2 represent sequences from keratin 5 and peptide 3 is derived from keratin 14; however, it is the intention that the invention also includes peptides and/or proteins from other proteins, e.g. such as those found in the blebs from keratinocytes that have been exposed to haptens.
Preparation of amino acid containing epitope targets as described in example 3.
Of 20 individuals with a confirmed allergy to the hapten cinnamic aldehyde, 10 are given a test solution of 0.5 mg to 10 g amino acid containing epitope target 1 once a day for 5-100 days. The other 10 individuals are given a placebo (i.e. tap water) to drink according to the same administration scheme and time table as described above. The antibody and T cell epitope mapping profiles for each individual are then evaluated according to procedures in example 4 and 5. Each individual is also patch-tested with cinnamic aldehyde.

Molecule: O=c1[nH]sc2ccccc12 [1,2-Benzisothiazolin-3-one]
sensitizer class by EC3-value [1]: Moderate (key: Extreme: For extreme sensitizers (EC3<0.1%); Strong: For strong sensitizers (0.1%<EC3<1%); Moderate: For moderate sensitizers (1%<EC3<10%); Weak: For weak sensitizers (EC3>10%))

Molecule: O=[N+]([O-])c1ccc(Cl)c([N+](=O)[O-])c1 [CDNB, 1-Chloro-2,4-dinitrobenzene]
blebbing response of keratinocytes [2]: provoke a blebbing response
levels of SAP protein in sera [3]: increased levels
sensitizer class by EC3-value [1]: Extreme (key: Extreme: For extreme sensitizers (EC3<0.1%); Strong: For strong sensitizers (0.1%<EC3<1%); Moderate: For moderate sensitizers (1%<EC3<10%); Weak: For weak sensitizers (EC3>10%))
levels of anti-nuclear antibodies (ANA) [4]: increased levels

Molecule: C=O [Formaldehyde]
sensitizer class by EC3-value [1]: Strong (key: Extreme: For extreme sensitizers (EC3<0.1%); Strong: For strong sensitizers (0.1%<EC3<1%); Moderate: For moderate sensitizers (1%<EC3<10%); Weak: For weak sensitizers (EC3>10%))

Molecule: O=CC=O [Glyoxal, ethane-1,2-dione]
blebbing response of keratinocytes [2]: provoke a blebbing response
keratins (K5 and K14) in blebs [5]: contain K5 and K14; also recorded: also contain keratins
levels of SAP protein in sera [3]: increased levels
sensitizer class by EC3-value [1]: Strong (key: Extreme: For extreme sensitizers (EC3<0.1%); Strong: For strong sensitizers (0.1%<EC3<1%); Moderate: For moderate sensitizers (1%<EC3<10%); Weak: For weak sensitizers (EC3>10%))
levels of anti-nuclear antibodies (ANA) [4]: increased levels

Molecule: CCOC=C1N=C(c2ccccc2)OC1=O [Oxazolone, 4-Ethoxymethylene-2-phenyl-2-oxazolin-5-one]
blebbing response of keratinocytes [2]: provoke a blebbing response
keratins (K5 and K14) in blebs [5]: contain K5 and K14; also recorded: also contain keratins
protection against the hapten after tolerance induction [6]: some protection
levels of anti-nuclear antibodies (ANA) [4]: increased levels

Molecule: O=CCc1ccccc1 [Phenylacetaldehyde]
sensitizer class by EC3-value [1]: Moderate (key: Extreme: For extreme sensitizers (EC3<0.1%); Strong: For strong sensitizers (0.1%<EC3<1%); Moderate: For moderate sensitizers (1%<EC3<10%); Weak: For weak sensitizers (EC3>10%))

Molecule: CCCCCCCCCCCCOS(=O)(=O)[O-].[Na+] [SDS, Sodium dodecyl sulphate]
cellular response other than blebbing ([2]; human keratinocytes exposed to compound): cells seem to “dissolve”

Molecule: Cc1c(CBr)n2c(CBr)c(C)c(=O)n2c1=O [dBBr, dibromobimane]
cross links between proteins [7]: cause cross links between for example keratins
levels of anti-nuclear antibodies (ANA) [4]: increased levels

covalent modification of C54 of K5 ([8]; intact, full-thickness human skin): modifies C54 of K5
Molecule: Cc1c(C)n2c(CBr)c(C)c(=O)n2c1=O [mBBr]
covalent modification of C54 of K5 ([8]; living human keratinocytes): modify C54 of K5; also recorded: modifies C54 of K5

Molecule: [Ni] [nickel]
protection against the hapten after tolerance induction [6]: some protection

Molecule: CCCCCCC(C=O)=Cc1ccccc1 [α-Hexyl-cinnamicaldehyde]
sensitizer class by EC3-value [1]: Weak (key: Extreme: For extreme sensitizers (EC3<0.1%); Strong: For strong sensitizers (0.1%<EC3<1%); Moderate: For moderate sensitizers (1%<EC3<10%); Weak: For weak sensitizers (EC3>10%))

Molecule: [Ace]-VSLGGACGAGGYG-[Amide] [amino acid containing epitope target 1]
antibodies and T cells against the amino acid containing epitope target [9]: less antibodies and T cells
reaction to cinnamic aldehyde in the patch test [9]: less reaction
